What was measured:
β-adrenoreceptor (β1) [1] = biological target: T1, β-adrenoreceptor (β1) (Rattus norvegicus, UniProt P18090); experiment: β-adrenoceptor blocking action on isolated spontaneously beating right atrium (L-isoproterenol-induced heart rate increase, Schild plot); design: species or system Wistar rat
T1 construct: The right and left atria were then separated; from tissue; host or cells: isolated rat right and left atria
Method: The right and left atria were then separated. The spontaneously-beating right atria was clipped on both end by heart shaped clips, where one end was fixed at the bottom of 10ml of tissue bath made of physiological saline solution, and temperature maintained at 37°C. The other end of the atria was connected to a force transducer, and isometric contractions and beating rate of the right atria were recorded by COULBOURN AT-High-Speed VideoFigure. […] Cumulative administration interval was when the previous concentration reached its greatest effect, the next concentration would be immediately given.

atrial β 1-receptor = biological target: T2, atrial β 1-receptor (Rattus norvegicus, UniProt P18090); experiment: [3H]CGP-12177 receptor binding on atrial membranes; design: species or system Wistar rat
T2 construct: The heart and lung of rat were removed and placed in cold Tris buffer; from tissue; host or cells: rat atrial membranes
T2 sequence (P18090 whole entry): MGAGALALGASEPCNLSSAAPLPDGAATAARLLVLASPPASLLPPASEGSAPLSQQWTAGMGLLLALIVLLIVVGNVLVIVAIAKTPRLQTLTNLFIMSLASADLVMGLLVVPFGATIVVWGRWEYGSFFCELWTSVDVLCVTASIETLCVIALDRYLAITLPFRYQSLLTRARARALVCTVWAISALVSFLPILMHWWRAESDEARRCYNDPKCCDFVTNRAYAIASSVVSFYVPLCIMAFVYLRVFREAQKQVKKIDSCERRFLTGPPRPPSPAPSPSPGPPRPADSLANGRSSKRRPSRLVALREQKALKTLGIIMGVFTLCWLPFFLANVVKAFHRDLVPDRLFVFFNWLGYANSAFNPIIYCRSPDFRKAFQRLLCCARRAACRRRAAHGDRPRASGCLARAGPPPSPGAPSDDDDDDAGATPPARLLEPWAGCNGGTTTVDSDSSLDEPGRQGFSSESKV
Method: (§1) The heart and lung of rat were removed and placed in cold Tris buffer. Then the atria and lung were separated and weighed, before placing in cold Tris buffer with volume 20X their weights. […] The centrifugal fluid was again centrifuged at 10,000 gm for 12 minutes. The second centrifugal fluid was centrifuged for the third time at 29,000 gm for 15 minutes. The pellet finally obtained was re-suspended in Tris buffer as little as possible. […] Finally, the protein concentration was diluted with Tris buffer to maintain 200∼250 µ g protein per 100 µ l.
(§2) After reaction, 1ml of cold Tris buffer was added to terminate the binding reaction.

[2] = tested on: BayK8644 pretreated thoracic aorta; experiment: Isolated thoracic aorta pretreated with BayK8644, then contracted with concentrated potassium solution; design: species or system Wistar rat; settings: 0.1 µ M of BayK8644 for 10 minutes; 10^-8 to 10^-5 M compound
Method: The effect of compound 1 on the thoracic aorta contraction caused by 75mM KCl. The Wistar rat's isolated thoracic aorta was contraction induced by 75mM of concentrated Potassium solution. […] Furthermore, the contraction effects of 10^-8M of compound 1- 9 were indicated on Table 1. (b) The effect of compound 1 on BayK8644 pretreated thoracic aorta: 0.1 µ M of BayK8644 was first added into the tissue trough. 10 minutes later, 75mM of concentrated Potassium solution was added to induce thoracic aorta contraction. When vasoconstriction had reached stability, different concentrations of (10^-8, 10^-7, 10^-6, and 10^-5M) compound 1 were separately added.

β2-adrenoceptor = biological target: T3, β2-adrenoceptor (Cavia porcellus, UniProt Q8K4Z4); experiment: β-adrenoceptor blocking action on isolated trachea contracted with carbachol (L-isoproterenol relaxation); design: species or system guinea pig
T3 construct: a portion of tracheal approximately 4 cm long was removed; from tissue; host or cells: isolated guinea pig trachea (reserpine-pretreated animals)
T3 sequence (Q8K4Z4 whole entry): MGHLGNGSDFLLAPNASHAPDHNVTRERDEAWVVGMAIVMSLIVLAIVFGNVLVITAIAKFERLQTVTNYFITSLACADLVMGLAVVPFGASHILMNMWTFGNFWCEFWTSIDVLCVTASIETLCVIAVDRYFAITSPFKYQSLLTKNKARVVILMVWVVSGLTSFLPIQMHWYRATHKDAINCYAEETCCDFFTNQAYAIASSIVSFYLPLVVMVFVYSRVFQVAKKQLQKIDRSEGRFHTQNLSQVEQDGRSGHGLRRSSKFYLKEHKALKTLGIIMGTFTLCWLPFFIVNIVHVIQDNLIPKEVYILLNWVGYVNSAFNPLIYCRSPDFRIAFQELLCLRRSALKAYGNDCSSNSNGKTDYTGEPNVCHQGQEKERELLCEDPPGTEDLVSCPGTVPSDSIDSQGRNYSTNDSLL
Method: Guinea pigs of weight between 300 ∼500 gm were used. […] After the guinea pigs were sacrificed, a slit was made along the neck, and a portion of tracheal approximately 4 cm long was removed. […] The two ends of the tracheal were clamped with frog-heart shaped clamps, one end was fixed at the bottom of tissue bath filled with 20 ml of Kreb's solution, maintained at 37°C, while the other end was connected to a force transducer. Through a COULBOURN AT-High-Speed Videograph, long isometric contractions were recorded. […] Then the tracheal was repeatedly washed with Kreb's solution for 20 minutes and 10^-6 M of carbochol was added to cause contraction in the guinea pig's tracheal. When the contraction reached the maximum, every division of tracheal was used to complete two concentration response curve of L-isoproternol, one of them without administration of test compound and used as control; while the other curve was administered with compound 1 for 30 minutes before concentration response curve was completed. This is the test group. • (b) Calculation of pA2: similar to the calculation method for isolated right atrium experiment.

β-adrenoreceptor (β1) [3] = biological target: T1, β-adrenoreceptor (β1); experiment: β-adrenoceptor blocking action on electrically driven isolated left atrium (L-isoproterenol-induced contractility); design: species or system Wistar rat
Method: The inspontaneously-beating left atrial tissue was obtained from rat's isolated right atrial tissue experiments. […] The contraction rate was 1Hz and the resting tension 0.5 gm. After 60 minutes of equilibration, the following experiments were performed: • (a) Completion of cumulative concentration-response curve: similar to experimental method on isolated right atrium; • (b)Calculation of pA2 value: similar to calculation method on isolated right atrium.

lung β 2-receptor = biological target: T4, lung β 2-receptor (Rattus norvegicus, UniProt P10608); experiment: [3H]CGP-12177 receptor binding on lung membranes; design: species or system Wistar rat
T4 construct: The heart and lung of rat were removed and placed in cold Tris buffer; from tissue; host or cells: rat lung membranes
T4 sequence (P10608 whole entry): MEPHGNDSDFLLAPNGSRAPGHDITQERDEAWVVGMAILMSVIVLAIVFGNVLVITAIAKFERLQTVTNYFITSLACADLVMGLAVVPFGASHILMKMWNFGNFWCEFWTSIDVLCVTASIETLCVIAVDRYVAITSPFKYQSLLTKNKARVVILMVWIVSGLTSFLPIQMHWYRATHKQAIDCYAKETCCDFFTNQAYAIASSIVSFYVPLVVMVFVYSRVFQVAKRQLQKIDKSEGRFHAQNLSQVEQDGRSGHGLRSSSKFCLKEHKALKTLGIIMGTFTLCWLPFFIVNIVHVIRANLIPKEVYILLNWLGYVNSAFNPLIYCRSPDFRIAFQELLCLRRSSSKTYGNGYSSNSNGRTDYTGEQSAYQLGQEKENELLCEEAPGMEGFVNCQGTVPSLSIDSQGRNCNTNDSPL
Method: as §1, §2

A7r5 cells = experiment: Fluorescence determination of intracellular calcium ion (fluo 3-AM, laser cytometer); type: cell-based; settings: 10^-8, 10^-7, and 10^-6M for 5 minutes
Method: The intensity of fluo 3-AM was measured by line scanning at 30second interval with an argon laser at […].

[4] = tested on: Wistar rat's isolated; reserpine pretreated right atrium beating rate and left atrium isometric contractions; experiment: Direct effect (intrinsic sympathomimetic activity) on reserpine-pretreated isolated atria
Method: Pharmacol 311, pp. 205-218 and pp 237-248 (1980). Wistar rats of weight between 200 ∼ 300 gm were used. 18 ∼ 24 hours before the experiment, 5mg/kg of reserpine was injected via abdominal cavity to remove all endogenous catecholamines. Prior experiment, Wistar rats were sacrificed, the heart was immediately removed and placed in Kreb's solution aerated with air mixture and maintained at room temperature. The right and left atria were carefully separated.

[5] = tested on: Wistar rat's isolated thoracic aorta; experiment: Isolated thoracic aorta contraction caused by 75mM KCl; settings: 10^-8M; thoracic aorta contraction caused by 75mM KCl
Method: After sacrificing Wistar rat of weight between 300 - 500 gm, the thoracic aorta was immediately removed and placed in cold Kreb's solution. The fatty connecting tissue surrounding the vessel wall was removed and the thoracic aorta was cut into rings of length 5 mm. The two ends of each ring was pieced and fixed with "Z" shaped platinum wires. […] When the results had been recorded for at least 35 minutes, the aorta was repeatedly rinsed with normal Kreb's solution. […] 30 minutes later, 75mM KCl was added again to induce vasoconstriction.

normotensive rats = experiment: Heart rate and blood pressure in living (anaesthetized) rat, intravenous injection; type: in vivo, Wistar rats
Excerpt: Male Wistar rats, weighing 200 ∼ 300g were abdominal anaesthetized with pentobarbital sodium. Tracheal was cannulated to maintain normal respiration. Polyethylene tube was inserted into the left femoral vein to facilitate drug administration. A 3-way stopcock was used, with one end connected to a syringe for drug injection, while the other end was connected to the syringe filled with physiological saline. The latter was used to prevent residual drugs in the polyethylene tube after injection, which would affect experimental accuracy.
The right femoral artery was also inserted with polyethylene, and a 3-way stopcock was used tool, where one end was connected to heparin solution to prevent embolism. The other end was connected to a Disposable Diaphragm Dome, TA1019, and linked to a transducer. Through an amplifier, a recorder recorded the overall and average arterial pressure; heart rate to evaluate the effect of drug on blood pressure and heart rate.

[6] = tested on: guinea pig's isolated; reserpine pretreated tracheal; experiment: Direct effect (tracheal relaxation, intrinsic sympathomimetic activity) on reserpine-pretreated isolated trachea, with and without ICI 118,551
Method: Pharmacol 311, pp. 205-218 and pp.237-248 (1980). guinea pigs of weight between 350 ∼ 500 gm were used. 18 ∼ 24 hours before the experiment, 5mg/kg of reserpine was injected via abdominal cavity to remove all endogenous catecholamines. Prior experiment, guinea pigs were sacrificed, the tracheal was immediately removed and placed in Kreb's solution aerated with air mixture and maintained at room temperature of 22 ∼ 25°C. […] […] Then the tissue was repeatedly washed with Kreb's solution. After the tissue had been re-equilibrated for 60 minutes, ICI 118, 551 were administed. After treatment for 30 minutes, compound 1 of similar concentration was administered, and the intrinsic sympathomimetic activity of tracheal was observed.

T1 sequence (P18090 whole entry): as the sequence (P18090 whole entry) above

COC(=O)C1=C(C)NC(C)=C(C(=O)OC)C1c1ccc(OCC(O)CNC(C)(C)C)c(OC)c1 (stereo not shown) [compound 1]
selectivity ratio of β1 type adrenoceptor (effect on right atrium relative to tracheal) (β-adrenoreceptor (β1) [1]; from the average pA2 difference between right atrium and tracheal): 1.32 X
pA2 value (β-adrenoreceptor (β1) [1]; isolated right atrium, against L-isoproterenol): 7.21±0.32
blocking of heart rate increment effect of L-isoproterenol (β-adrenoreceptor (β1) [1]; isolated right atrium, three concentrations of compound): could competitively block the heart rate increment effect of L-isoproterenol
Ki (atrial β 1-receptor): 245 nM
effect of BayK8644 pre-treatment on the compound's vascular effect [2]: pre-treatment with BayK8644 would affect vasoconstriction function
pA2 value (β2-adrenoceptor; guinea pig's isolated tracheal, against L-isoproterenol): 7.09±0.54
blocking of tracheal relaxation effect of L-isoproterenol (β2-adrenoceptor; trachea contracted with 10^-6 M CARBACHOL): could competitively block the effect of L-isoproterenol
blocking of heart contractility increment effect of L-isoproterenol (β-adrenoreceptor (β1) [3]; isolated left atrium, three concentrations of compound): could competitively block the heart contractility increment effect of L-isoproterenol
pA2 value (β-adrenoreceptor (β1) [3]; left atrium contractility, against L-isoproterenol): 6.91±0.26
Ki (lung β 2-receptor): 631 nM
calcium ion influx effect of KCl ([Ca^2+]i) (A7r5 cells; 50mM KCl): significantly blocked
calcium ion influx effect of BayK8644 ([Ca^2+]i) (A7r5 cells; 10 µ M BayK8644): significantly blocked
direct effect on right atrium beating rate and left atrium isometric contractions ([4]; cumulative administration, reserpine pretreated): could not increase the beating rate and isometric contractions
concentration with blocking effect on beating rate and isometric contractions ([4]; reserpine pretreated atria): ≥ 10^-5 M
Aorta Relaxation [5]: 30± 3%
effect on blood pressure and heart rate (normotensive rats; intravenous injection of 0.5 mg/kg): a decrease in heart rate was shown
effect on blood pressure and heart rate (normotensive rats; intravenous injection, 0.1, 0.25, 0.5, 1.0, 2.0 mg/kg, normotensive rats): continuous dose-dependent blood pressure lowering effect without increasing heart rate
duration of blood pressure lowering effect (normotensive rats; intravenous injection, normotensive rats): approximately 1 hour
Lowering of Blood Pressure (normotensive rats; lmg/kg, via femoral vein, rats): 70± 3 mm Hg
Reduction of Heart Rate (normotensive rats; lmg/kg, via femoral vein, rats): 30± 2 beats/min
tracheal relaxation effect after pretreatment with ICI 118, 551 [6]: concentration-dependently shifting parallel to the right
tracheal relaxation effect ([6]; cumulative administration 10^-10∼3x10^-6 M, reserpine pretreated): dose-dependant tracheal relaxation effect

Reference: patent EP1108710A1, “GUAIACOXYPROPANOLAMINES WITH ALPHA/BETA-ADRENERGIC BLOCKING ACTIVITY” (Cheng, Ing-Jun, priority 1998, dated 2000)
